Laboratory results published in ChEMBL document CHEMBL6092158, “Green synthesis of neuroprotective spirocyclic chalcone derivatives and their role in protecting against traumatic optic nerve injury” (Eur J Med Chem, 2024).
Calls of active or inactive are those of the source. The rule behind the calls is not given here.

Key:
R28 [1] = assay: Cytoprotective activity against glutamate-induced cytotoxicity in rat R28 cells assessed as increase in cell viability at 10 uM incubated for 24 hrs in presence of glutamate by MTT assay; format: functional, cell-based
R28 [2] = assay: Cytoprotective activity against hydrogen peroxide-induced cytotoxicity in rat R28 cells assessed as increase in cell viability at 10 uM preincubated for 24 hrs followed by incubation with H2O2 for 24 hrs by MTT assay; format: functional, cell-based
[3] = Acute toxicity in C57BL/6J mouse assessed as heart damage at 500 mg/kg, ip and measured on day 14 by Hematoxylin-Eosin staining based analysis; format: organism-based; conditions: in vivo, 336 h, time 14 day
Mus musculus [4] = assay: Neuroprotective activity against optic nerve crush C57BL/6J mouse model at 1 ug/ul administered into vitreous cavity immediately after ONC surgery and measured on day 7 post-surgery by optical coherence examination analysis; format: functional, organism-based; conditions: dose 1.0 µg/microL, route ivt, time 7.0 day
[5] = Cytotoxicity against rat R28 cells assessed as effect on cell viability by MTT assay; format: toxicity, cell-based
R28 [6] = assay: Cytoprotective activity against oxidative glutamate-induced cytotoxicity in rat R28 cells assessed as increase in cell viability at 1.25 to 2.5 uM incubated for 24 hrs by MTT assay; format: functional, cell-based; conditions: dose 1.25-2.5 µM
Cortical neurone [7] = assay: Cytoprotective activity against oxidative glutamate-induced cytotoxicity in rat primary cortical neuronal cells assessed as increase in cell viability at 1.25 uM incubated for 24 hrs by CCK8 assay; format: functional, cell-based
R28 [8] = assay: Inhibition of glutamate-induced apoptosis in rat R28 cells assessed as decrease in number of PI-positive cells at 5 uM incubated for 24 hrs by Hoechst33342/PI staining based fluorescence microscopic analysis; format: functional, cell-based
[9] = Inhibition of glutamate-induced apoptosis in rat R28 cells assessed as viable cells incubated for 24 hrs by AnnexinV-FITC/PI staining based flow cytometry (reference value: 28.81%); format: functional
[10] = Inhibition of glutamate-induced apoptosis in rat R28 cells assessed as early apoptotic cells incubated for 24 hrs by AnnexinV-FITC/PI staining based flow cytometry (reference value: 69.04%); format: functional; parameters: scale not given: the % may be the effect or the level left
[11] = Inhibition of glutamate-induced apoptosis in rat R28 cells assessed as late apoptotic cells incubated for 24 hrs by AnnexinV-FITC/PI staining based flow cytometry (reference value: 3.47%); format: functional; parameters: scale not given: the % may be the effect or the level left
[12] = Inhibition of glutamate-induced apoptosis in rat R28 cells assessed as necrotic cells incubated for 24 hrs by AnnexinV-FITC/PI staining based flow cytometry (reference value: 0.68%); format: functional; parameters: scale not given: the % may be the effect or the level left
[13] = Induction of apoptosis in rat R28 cells assessed as viable cells incubated for 24 hrs by AnnexinV-FITC/PI staining based flow cytometry (reference value: 91.34%); format: toxicity, cell-based; conditions: read-out: Activity
[14] = Induction of apoptosis in rat R28 cells assessed as early apoptotic cells incubated for 24 hrs by AnnexinV-FITC/PI staining based flow cytometry (reference value: 1.53%); format: toxicity, cell-based; conditions: r28, 24 h
[15] = Induction of apoptosis in rat R28 cells assessed as late apoptotic cells incubated for 24 hrs by AnnexinV-FITC/PI staining based flow cytometry (reference value: 4.59%); format: toxicity, cell-based; conditions: r28, 24 h
[16] = Induction of apoptosis in rat R28 cells assessed as necrotic cells incubated for 24 hrs by AnnexinV-FITC/PI staining based flow cytometry (reference value: 2.54%); format: toxicity, cell-based; conditions: r28, 24 h
Mus musculus [17] = assay: Neuroprotective activity against optic nerve crush C57BL/6J mouse model assessed as increase in retinal nerve fibre layer thickness complex at 1 ug/ul administered into vitreous cavity immediately after ONC surgery and measured on day 7 post-surgery by optical coherence examination analysis; format: functional, organism-based; conditions: dose 1.0 µg/microL, route ivt, time 7.0 day
Mus musculus [18] = assay: Neuroprotective activity against optic nerve crush C57BL/6J mouse model assessed as increase in ganglion cell layer complex at 1 ug/ul administered into vitreous cavity immediately after ONC surgery and measured on day 7 post-surgery by optical coherence examination analysis; format: functional, organism-based; conditions: dose 1.0 µg/microL, route ivt, time 7.0 day
Mus musculus [19] = assay: Neuroprotective activity against optic nerve crush C57BL/6J mouse model assessed as increase in inner plexiform layer complex at 1 ug/ul administered into vitreous cavity immediately after ONC surgery and measured on day 7 post-surgery by optical coherence examination analysis; format: functional, organism-based; conditions: dose 1.0 µg/microL, route ivt, time 7.0 day
Mus musculus [20] = assay: Neuroprotective activity against optic nerve crush C57BL/6J mouse model assessed as increase in P1-N2 wave amplitude of optic nerve at 1 ug/ul administered into vitreous cavity immediately after ONC surgery and measured on day 7 post-surgery by F-EVP based electrophysiological analysis; format: functional, organism-based; conditions: dose 1.0 µg/microL, route ivt, time 7.0 day
Mus musculus [21] = assay: Neuroprotective activity against optic nerve crush C57BL/6J mouse model assessed as restoration of P1 latency of optic nerve at 1 ug/ul administered into vitreous cavity immediately after ONC surgery and measured on day 7 post-surgery by […] based electrophysiological analysis; format: functional, organism-based; conditions: dose 1.0 µg/microL, route ivt, time 7.0 day
R28 [22] = assay: Antioxidant activity in rat R28 cells assessed as inhibition of glutamate-induced reactive oxygen species generation by measuring decrease in fluorescence intensity at 5 uM incubated for 24 hrs by DCFH-DA staining based immunofluorescence analysis; format: functional, cell-based
[23] = Antioxidant activity assessed as DPPH radical scavenging activity at 20 uM by DPPH assay; format: functional
[24] = Antioxidant activity assessed as DPPH radical scavenging activity at 100 uM by DPPH assay; format: functional
R28 [25] = assay: Antioxidant activity in rat R28 cells assessed as inhibition of glutamate-induced oxidative stress by measuring decrease in intracellular MDA level; format: functional, cell-based
[26] = Antioxidant activity in rat R28 cells assessed as inhibition of glutamate-induced reactive oxygen species generation at 5 uM incubated for 24 hrs by DCFH-DA staining based flow cytometry (reference value: 16.61%); format: functional; parameters: scale not given: the % may be the effect or the level left
[27] = Effect on reactive oxygen species generation in rat R28 cells at 5 uM incubated for 24 hrs by DCFH-DA staining based flow cytometry (reference value: 0.49%); format: toxicity, cell-based; conditions: r28, 24 h
Cortical neurone [28] = assay: Antioxidant activity in rat primary cortical neuron assessed as inhibition of glutamate-induced reactive oxygen species generation at 5 uM incubated for 24 hrs by DCFH-DA staining based immunofluorescence analysis; format: functional, cell-based
Mus musculus [29] = assay: Inhibition of glutamate-induced JNK phosphorylation in retinal tissue of optic nerve crush C57BL/6J mouse model at 1 ug/ul administered into vitreous cavity immediately after ONC surgery and measured on day 7 post-surgery by western blot analysis; format: functional; conditions: dose 1.0 µg/microL, route ivt, time 7.0 day
Mus musculus [30] = assay: Effect on total JNK level in retinal tissue of optic nerve crush C57BL/6J mouse model at 1 ug/ul administered into vitreous cavity immediately after ONC surgery and measured on day 7 post-surgery by western blot analysis; format: functional; conditions: dose 1.0 µg/microL, route ivt, time 7.0 day
[31] = Acute toxicity in C57BL/6J mouse assessed as animal activity level at 500 mg/kg, ip; format: organism-based; conditions: in vivo
[32] = Acute toxicity in C57BL/6J mouse assessed as body weight at 500 mg/kg, ip measured for 14 days; format: organism-based; conditions: in vivo, 336 h, time 14 day
[33] = Acute toxicity in C57BL/6J mouse assessed as heart weight at 500 mg/kg, ip and measured on day 14; format: organism-based; conditions: in vivo, 336 h, time 14 day
[34] = Acute toxicity in C57BL/6J mouse assessed as liver weight at 500 mg/kg, ip and measured on day 14; format: organism-based; conditions: in vivo, 336 h, time 14 day
[35] = Acute toxicity in C57BL/6J mouse assessed as spleen weight at 500 mg/kg, ip and measured on day 14; format: organism-based; conditions: in vivo, 336 h, time 14 day
[36] = Acute toxicity in C57BL/6J mouse assessed as lungs weight at 500 mg/kg, ip and measured on day 14; format: organism-based; conditions: in vivo, 336 h, time 14 day
[37] = Acute toxicity in C57BL/6J mouse assessed as kidney weight at 500 mg/kg, ip and measured on day 14; format: organism-based; conditions: in vivo, 336 h, time 14 day
[38] = Acute toxicity in C57BL/6J mouse assessed as ALT level in serum at 500 mg/kg, ip and measured on day 14; format: organism-based; conditions: in vivo, 336 h, time 14 day
[39] = Acute toxicity in C57BL/6J mouse assessed as AST level in serum at 500 mg/kg, ip and measured on day 14; format: organism-based; conditions: in vivo, 336 h, time 14 day
[40] = Acute toxicity in C57BL/6J mouse assessed as liver damage at 500 mg/kg, ip and measured on day 14 by Hematoxylin-Eosin staining based analysis; format: organism-based; conditions: in vivo, 336 h, time 14 day
[41] = Acute toxicity in C57BL/6J mouse assessed as spleen damage at 500 mg/kg, ip and measured on day 14 by Hematoxylin-Eosin staining based analysis; format: organism-based; conditions: in vivo, 336 h, time 14 day
[42] = Acute toxicity in C57BL/6J mouse assessed as lung damage at 500 mg/kg, ip and measured on day 14 by Hematoxylin-Eosin staining based analysis; format: organism-based; conditions: in vivo, 336 h, time 14 day
[43] = Acute toxicity in C57BL/6J mouse assessed as kidney damage at 500 mg/kg, ip and measured on day 14 by Hematoxylin-Eosin staining based analysis; format: organism-based; conditions: in vivo, 336 h, time 14 day
[44] = Acute toxicity in C57BL/6J mouse assessed as retinal damage at 500 mg/kg, ip and measured on day 14 by Hematoxylin-Eosin staining based analysis; format: organism-based; conditions: in vivo, 336 h, time 14 day

In the case of `CN1C[C@H](c2ccc(O)c(O)c2)[C@@H](C(=O)c2cc(F)cc(F)c2)[C@]12C(=O)Nc1ccccc12`, the Activity (R28 [1]) is reported as “Active”, the Activity (R28 [2]) is reported as “Active” and the Activity [3] is reported as “Non-toxic”. The Activity (Mus musculus [4]) was “Active”, the Activity [5] was “Toxic” and the Activity (R28 [6]) was “Active”. The Activity (Cortical neurone [7]) was “Active”, the inhibition (R28 [8]) was “Active” and the Activity [9] was 89.77%. For the same compound, the Activity [10] was 1.63%, the Activity [11] was 6.05% and the Activity [12] was 2.54%. It also gave a viability at 24 h [13] of 87.5%, an Activity [14] of 1.94% and an Activity [15] of 8.4%. The Activity [16] was 2.13%, the Activity (Mus musculus [17]) was “Active” and the Activity (Mus musculus [18]) was “Active”. The Activity (Mus musculus [19]) was “Active”, the Activity (Mus musculus [20]) was “Active” and the Activity (Mus musculus [21]) was “Active”. For the same compound, the Activity (R28 [22]) was “Active”, the Activity [23] was “Active” and the inhibition [24] was 95%. For the same compound, the Activity (R28 [25]) was “Active”, the Activity [26] was 4.62% and the Activity [27] was 2.05%. For the same compound, the Activity (Cortical neurone [28]) was “Active”, the inhibition (Mus musculus [29]) was “Active” and the Activity (Mus musculus [30]) was “inactive”. The Activity [31] was “Non-toxic”, the Activity [32] was “Non-toxic” and the Activity [33] was “Non-toxic”. The Activity [34] was “Non-toxic”, the Activity [35] was “Non-toxic” and the Activity [36] was “Non-toxic”. The Activity [37] was “Non-toxic”, the Activity [38] was “Non-toxic” and the Activity [39] was “Non-toxic”. The Activity [40] was “Non-toxic”, the Activity [41] was “Non-toxic” and the Activity [42] was “Non-toxic”. The Activity [43] was “Non-toxic” and the Activity [44] was “Non-toxic”.
